{"source": "patent US20040254161A1", "about": "“New benzothiazine and benzothiadiazine compounds” (priority 2003, published 2004)"}
{"test_system": "AMPA receptors", "assay": "Excitatory currents induced by AMPA in Xenopus oocytes (two-electrode voltage-clamp)", "assay_type": "cell-based", "settings": "Xenopus oocytes injected with rat cerebral cortex poly(A+) mRNA; AMPA 10 μM; 20-24° C., OR2 medium", "description": "Study of the Excitatory Currents Induced by AMPA in Xenopus oocytes\nmRNA's are prepared from cerebral cortex of male Wistar rats by the guanidinium thiocyanate/phenol/chloroform method. The poly (A^+) mRNA's are isolated by chromatography on oligo-dT cellulose and injected at a level of 50 ng per oocyte. The oocytes are incubated for 2 to 3 days at 18° C. to permit expression of the receptors and are then stored at 8-10° C.\nElectrophysiological recording is carried out in a Plexiglass® chamber at 20-24° C. in OR2 medium (J. Exp. Zool., 1973, 184, 321-334) by the “voltage-clamp” method using two electrodes, with a third electrode placed in the bath serving as reference.\nAll the compounds are applied via the incubation medium and the electric current is measured at the end of the application period. AMPA is used in a concentration of 10 μM. For each compound studied, the concentration that doubles (EC2X) or quintuples (EC5X) the intensity of the current induced by AMPA alone (5 to 50 nA) is determined.", "units": {"EC2X (concentration that doubles the intensity of the current induced by AMPA alone)": "µM", "EC5X (concentration that quintuples the intensity of the current induced by AMPA alone)": "µM"}}
{"molecule": "Cl.NCc1cccc(Oc2ccc3c(c2)S(=O)(=O)NC2CCCN32)c1", "note": "(stereo not drawn) [Example 1, {3-[(5,5-Dioxido-2,3,3a,4-tetrahydro-1H-pyrrolo[2,1-c][1,2,4]-benzothiadiazin-7-yl)oxy]phenyl}methanamine hydrochloride]", "EC2X (concentration that doubles the intensity of the current induced by AMPA alone)": 3.5, "EC5X (concentration that quintuples the intensity of the current induced by AMPA alone)": 9.2}
{"molecule": "CS(=O)(=O)NCc1cccc(Oc2ccc3c(c2)S(=O)(=O)NC2CCCN32)c1", "note": "(stereo not drawn) [Example 2, N-{3-[(5,5-Dioxido-2,3,3a,4-tetrahydro-1H-pyrrolo[2,1-c][1,2,4]-benzothiadiazin-7-yl)oxy]benzyl}methanesulphonamide]", "EC2X (concentration that doubles the intensity of the current induced by AMPA alone)": 0.35, "EC5X (concentration that quintuples the intensity of the current induced by AMPA alone)": 2.6}
{"molecule": "CS(=O)(=O)NCc1ccc(Oc2ccc3c(c2)S(=O)(=O)NC2CCCN32)cc1", "note": "(stereo not drawn) [Example 21, N-{4-[(5,5-Dioxido-2,3,3a,4-tetrahydro-1H-pyrrolo[2,1-c][1,2,4]-benzothiadiazin-7-yl)oxy]benzyl}methanesulphonamide]", "EC2X (concentration that doubles the intensity of the current induced by AMPA alone)": 0.1, "EC5X (concentration that quintuples the intensity of the current induced by AMPA alone)": 0.56}
{"test_system": "not given", "assay": "not given", "settings": "not given", "units": {"melting point": "°C"}}
{"molecule": "CC(=O)NCc1cccc(Oc2ccc3c(c2)S(=O)(=O)NC2CCCN32)c1", "note": "(stereo not drawn) [Example 3, N-{3-[(5,5-Dioxido-2,3,3a,4-tetrahydro-1H-pyrrolo[2,1-c][1,2,4]-benzothiadiazin-7-yl)oxy]benzyl}acetamide]", "melting point": 58}
{"molecule": "O=S1(=O)NC2CCCN2c2ccc(Oc3cccc(CNS(=O)(=O)C(F)(F)F)c3)cc21", "note": "(stereo not drawn) [Example 9, N-{3-[(5,5-Dioxido-2,3,3a,4-tetrahydro-1H-pyrrolo[2,1-c][1,2,4]-benzothiadiazin-7-yl)oxy]benzyl}(trifluoro)methanesulphonamide]", "melting point": "104 to 113"}
{"molecule": "CC(C)S(=O)(=O)NCc1cccc(Oc2ccc3c(c2)S(=O)(=O)NC2CCCN32)c1", "note": "(stereo not drawn) [Example 18, N-{3-[(5,5-Dioxido-2,3,3a,4-tetrahydro-1H-pyrrolo[2,1-c][1,2,4]-benzothiadiazin-7-yl)oxy]benzyl}propane-2-sulphonamide]", "melting point": "112 to 118"}
